Columns and labels:
Experiment in all cases: KINOMEscan competition binding
Conditions in all cases: compound 10.0 µM
SIK1 (human) = SIK1 (human) (UniProt P57059)
CDK18 (human) = CDK18 (human) (UniProt Q07002)
DAPK2 (human) = DAPK2 (human) (UniProt Q9UIK4)
CHEK1 (human) = CHEK1 (human) (UniProt O14757)
STK10 (human) = STK10 (human) (UniProt O94804)
TGFBR2 (human) = TGFBR2 (human) (UniProt P37173)
MYLK2 (human) = MYLK2 (human) (UniProt Q9H1R3)
SRPK1 (human) = SRPK1 (human) (UniProt Q96SB4)
EPHB3 (human) = EPHB3 (human) (UniProt P54753)
Chain of EPHB3 (human) (P54753 whole entry, looked up): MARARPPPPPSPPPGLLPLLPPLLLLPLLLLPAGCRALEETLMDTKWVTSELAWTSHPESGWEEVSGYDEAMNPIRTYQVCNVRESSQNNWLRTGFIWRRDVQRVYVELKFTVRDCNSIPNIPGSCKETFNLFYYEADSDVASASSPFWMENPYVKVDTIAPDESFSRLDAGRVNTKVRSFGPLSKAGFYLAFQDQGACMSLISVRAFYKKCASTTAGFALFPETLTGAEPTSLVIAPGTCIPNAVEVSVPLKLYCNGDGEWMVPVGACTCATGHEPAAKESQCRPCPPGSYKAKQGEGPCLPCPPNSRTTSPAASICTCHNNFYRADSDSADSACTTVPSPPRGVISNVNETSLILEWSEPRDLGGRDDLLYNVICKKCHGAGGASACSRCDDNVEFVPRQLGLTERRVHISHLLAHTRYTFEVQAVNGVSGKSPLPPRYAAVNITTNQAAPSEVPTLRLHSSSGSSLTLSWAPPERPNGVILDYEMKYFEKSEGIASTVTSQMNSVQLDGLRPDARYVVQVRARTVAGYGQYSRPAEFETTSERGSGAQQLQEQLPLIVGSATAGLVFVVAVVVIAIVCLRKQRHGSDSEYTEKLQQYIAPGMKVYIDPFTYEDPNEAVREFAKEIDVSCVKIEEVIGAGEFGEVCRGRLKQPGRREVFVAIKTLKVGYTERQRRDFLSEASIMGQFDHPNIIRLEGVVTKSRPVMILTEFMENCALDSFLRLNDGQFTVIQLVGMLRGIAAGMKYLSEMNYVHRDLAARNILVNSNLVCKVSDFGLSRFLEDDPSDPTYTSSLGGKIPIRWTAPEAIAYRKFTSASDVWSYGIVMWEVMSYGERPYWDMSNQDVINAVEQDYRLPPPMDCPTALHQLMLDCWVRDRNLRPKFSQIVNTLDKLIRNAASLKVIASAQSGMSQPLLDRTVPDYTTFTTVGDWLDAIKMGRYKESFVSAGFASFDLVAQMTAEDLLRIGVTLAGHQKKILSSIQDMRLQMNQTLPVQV

MINK1 (human) = MINK1 (human) (UniProt Q8N4C8)
LIMK2 (human) = LIMK2 (human) (UniProt P53671)
CLK2 (human) = CLK2 (human) (UniProt P49760)
CIT (human) = CIT (human) (UniProt O14578)
MAP4K2 (human) = MAP4K2 (human) (UniProt Q12851)
DYRK1A (human) = DYRK1A (human) (UniProt Q13627)
PIK3C2G (human) = PIK3C2G (human) (UniProt O75747)
[1] = test system: PIK3CA (human), P42336 [H1047L]
[2] = test system: KIT (human), P10721 [V559D/V654A]
STK33 (human) = STK33 (human) (UniProt Q9BYT3)
Chain of STK33 (human) (Q9BYT3 whole entry, looked up): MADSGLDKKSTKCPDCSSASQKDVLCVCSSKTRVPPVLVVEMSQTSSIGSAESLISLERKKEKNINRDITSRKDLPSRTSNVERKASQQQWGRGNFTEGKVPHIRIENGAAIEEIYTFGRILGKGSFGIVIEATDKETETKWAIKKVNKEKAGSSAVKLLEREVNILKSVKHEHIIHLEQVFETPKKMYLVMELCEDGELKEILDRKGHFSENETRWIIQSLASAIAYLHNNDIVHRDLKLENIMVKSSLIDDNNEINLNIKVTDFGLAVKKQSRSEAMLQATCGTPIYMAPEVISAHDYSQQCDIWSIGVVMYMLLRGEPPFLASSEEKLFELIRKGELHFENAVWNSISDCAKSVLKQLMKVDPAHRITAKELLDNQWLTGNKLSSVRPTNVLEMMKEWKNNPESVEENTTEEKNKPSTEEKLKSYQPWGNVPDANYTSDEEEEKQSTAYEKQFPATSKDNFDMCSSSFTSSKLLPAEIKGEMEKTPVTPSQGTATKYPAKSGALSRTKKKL

EPHA7 (human) = EPHA7 (human) (UniProt Q15375)
ACVRL1 (human) = ACVRL1 (human) (UniProt P37023)
RIOK3 (human) = RIOK3 (human) (UniProt O14730)
MAP2K3 (human) = MAP2K3 (human) (UniProt P46734)
Chain of MAP2K3 (human) (P46734 whole entry, looked up): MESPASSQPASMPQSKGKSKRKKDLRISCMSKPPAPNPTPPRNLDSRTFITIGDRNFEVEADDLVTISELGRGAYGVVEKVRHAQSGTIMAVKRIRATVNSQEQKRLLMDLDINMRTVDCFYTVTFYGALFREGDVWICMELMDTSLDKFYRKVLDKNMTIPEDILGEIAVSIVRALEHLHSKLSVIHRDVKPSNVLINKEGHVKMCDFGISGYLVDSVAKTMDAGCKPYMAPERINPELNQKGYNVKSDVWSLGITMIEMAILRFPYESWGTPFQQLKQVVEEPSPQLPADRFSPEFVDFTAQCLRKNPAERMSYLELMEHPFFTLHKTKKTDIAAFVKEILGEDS

MAP2K1 (human) = MAP2K1 (human) (UniProt Q02750)
SGK110 (human) = SGK110 (human) (UniProt P0C264)
MAPK15 (human) = MAPK15 (human) (UniProt Q8TD08)
IRAK1 (human) = IRAK1 (human) (UniProt P51617)
Chain of IRAK1 (human) (P51617 whole entry, looked up): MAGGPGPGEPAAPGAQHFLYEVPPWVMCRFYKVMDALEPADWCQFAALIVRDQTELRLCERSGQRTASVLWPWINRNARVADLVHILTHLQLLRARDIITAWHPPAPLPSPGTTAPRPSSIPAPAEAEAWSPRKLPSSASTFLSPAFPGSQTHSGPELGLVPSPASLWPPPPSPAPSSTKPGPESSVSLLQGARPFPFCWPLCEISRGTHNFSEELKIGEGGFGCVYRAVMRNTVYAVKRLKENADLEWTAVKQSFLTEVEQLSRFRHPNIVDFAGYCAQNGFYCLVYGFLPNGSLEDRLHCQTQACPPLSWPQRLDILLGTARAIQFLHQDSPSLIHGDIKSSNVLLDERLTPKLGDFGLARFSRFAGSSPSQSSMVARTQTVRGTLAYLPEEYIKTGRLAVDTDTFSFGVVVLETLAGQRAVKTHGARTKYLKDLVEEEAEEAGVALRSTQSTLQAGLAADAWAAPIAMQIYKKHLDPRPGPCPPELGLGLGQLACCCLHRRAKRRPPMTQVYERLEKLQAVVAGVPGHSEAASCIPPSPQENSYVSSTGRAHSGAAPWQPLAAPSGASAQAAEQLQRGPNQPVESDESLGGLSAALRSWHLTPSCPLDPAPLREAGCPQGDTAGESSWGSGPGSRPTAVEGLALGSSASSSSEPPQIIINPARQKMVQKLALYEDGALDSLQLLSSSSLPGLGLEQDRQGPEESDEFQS

CLK1 (human) = CLK1 (human) (UniProt P49759)
MAPK8 (human) = MAPK8 (human) (UniProt P45983)
[3] = test system: FLT3 (human), P36888 [ITD]
[4] = test system: ABL1 (human), P00519 [E255K]
FLT3 (human) = FLT3 (human) (UniProt P36888)
MAP4K4 (human) = MAP4K4 (human) (UniProt O95819)
NUAK1 (human) = NUAK1 (human) (UniProt O60285)
PIK3CD (human) = PIK3CD (human) (UniProt O00329)
MAPK13 (human) = MAPK13 (human) (UniProt O15264)
Chain of MAPK13 (human) (O15264 whole entry, looked up): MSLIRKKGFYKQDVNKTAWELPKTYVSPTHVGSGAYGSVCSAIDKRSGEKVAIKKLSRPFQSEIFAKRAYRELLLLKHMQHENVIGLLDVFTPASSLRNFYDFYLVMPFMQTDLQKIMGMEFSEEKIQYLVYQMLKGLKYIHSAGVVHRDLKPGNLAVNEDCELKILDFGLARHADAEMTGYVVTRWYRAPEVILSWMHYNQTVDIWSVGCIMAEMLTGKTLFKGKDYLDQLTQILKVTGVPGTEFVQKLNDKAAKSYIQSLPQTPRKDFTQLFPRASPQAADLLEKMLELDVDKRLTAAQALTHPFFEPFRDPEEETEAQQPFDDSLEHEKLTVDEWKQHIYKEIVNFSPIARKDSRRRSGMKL

MLTK (human) = MLTK (human) (UniProt Q9NYL2)
PLK1 (human) = PLK1 (human) (UniProt P53350)
BLK (human) = BLK (human) (UniProt P51451)
[5] = test system: EIF2AK4 KD2 (human), Q9P2K8 [S808G]
TEC (human) = TEC (human) (UniProt P42680)
Chain of TEC (human) (P42680 whole entry, looked up): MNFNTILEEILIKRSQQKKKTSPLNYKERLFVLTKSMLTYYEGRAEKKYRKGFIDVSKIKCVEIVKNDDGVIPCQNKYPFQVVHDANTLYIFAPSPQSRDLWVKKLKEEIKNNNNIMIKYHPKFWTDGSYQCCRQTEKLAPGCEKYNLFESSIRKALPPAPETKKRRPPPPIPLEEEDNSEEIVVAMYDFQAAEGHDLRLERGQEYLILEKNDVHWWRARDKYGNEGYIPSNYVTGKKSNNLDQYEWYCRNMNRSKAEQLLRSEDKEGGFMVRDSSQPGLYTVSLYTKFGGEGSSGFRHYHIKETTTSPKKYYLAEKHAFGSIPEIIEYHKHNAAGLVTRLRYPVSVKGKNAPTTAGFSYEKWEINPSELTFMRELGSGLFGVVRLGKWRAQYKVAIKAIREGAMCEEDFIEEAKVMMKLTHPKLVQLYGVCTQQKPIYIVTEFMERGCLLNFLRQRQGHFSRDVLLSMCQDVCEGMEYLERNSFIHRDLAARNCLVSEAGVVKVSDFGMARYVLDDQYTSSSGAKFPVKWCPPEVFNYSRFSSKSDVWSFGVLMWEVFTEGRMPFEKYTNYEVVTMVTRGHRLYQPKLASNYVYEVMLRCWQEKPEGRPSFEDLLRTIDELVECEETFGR

Chain of STK10 (human) (O94804 whole entry, looked up): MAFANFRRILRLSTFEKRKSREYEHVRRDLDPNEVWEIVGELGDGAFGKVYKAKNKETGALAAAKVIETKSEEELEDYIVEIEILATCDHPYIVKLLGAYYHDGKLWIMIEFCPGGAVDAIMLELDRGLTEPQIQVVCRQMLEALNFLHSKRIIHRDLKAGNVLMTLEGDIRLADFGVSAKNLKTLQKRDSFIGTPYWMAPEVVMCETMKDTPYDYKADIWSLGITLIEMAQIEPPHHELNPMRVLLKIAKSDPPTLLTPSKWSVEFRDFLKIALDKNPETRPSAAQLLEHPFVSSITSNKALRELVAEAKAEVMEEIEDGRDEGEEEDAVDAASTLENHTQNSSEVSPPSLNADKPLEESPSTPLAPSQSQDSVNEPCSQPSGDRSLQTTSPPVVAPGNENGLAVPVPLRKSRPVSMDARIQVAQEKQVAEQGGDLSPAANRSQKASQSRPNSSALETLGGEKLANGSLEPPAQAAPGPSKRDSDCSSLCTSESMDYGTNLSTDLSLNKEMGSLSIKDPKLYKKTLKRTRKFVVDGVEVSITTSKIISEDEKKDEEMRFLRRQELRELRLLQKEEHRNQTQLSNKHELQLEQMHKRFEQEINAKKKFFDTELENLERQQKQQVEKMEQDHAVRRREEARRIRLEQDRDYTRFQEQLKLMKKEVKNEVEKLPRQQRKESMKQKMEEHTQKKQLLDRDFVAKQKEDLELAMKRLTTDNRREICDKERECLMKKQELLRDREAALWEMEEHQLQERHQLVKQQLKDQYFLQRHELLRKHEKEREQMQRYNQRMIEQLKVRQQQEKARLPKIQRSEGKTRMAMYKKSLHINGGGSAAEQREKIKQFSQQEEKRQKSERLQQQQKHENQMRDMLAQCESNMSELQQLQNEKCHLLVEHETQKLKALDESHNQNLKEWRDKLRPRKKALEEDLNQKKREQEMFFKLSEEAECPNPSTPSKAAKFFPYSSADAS
Chain of CDK18 (human) (Q07002 whole entry, looked up): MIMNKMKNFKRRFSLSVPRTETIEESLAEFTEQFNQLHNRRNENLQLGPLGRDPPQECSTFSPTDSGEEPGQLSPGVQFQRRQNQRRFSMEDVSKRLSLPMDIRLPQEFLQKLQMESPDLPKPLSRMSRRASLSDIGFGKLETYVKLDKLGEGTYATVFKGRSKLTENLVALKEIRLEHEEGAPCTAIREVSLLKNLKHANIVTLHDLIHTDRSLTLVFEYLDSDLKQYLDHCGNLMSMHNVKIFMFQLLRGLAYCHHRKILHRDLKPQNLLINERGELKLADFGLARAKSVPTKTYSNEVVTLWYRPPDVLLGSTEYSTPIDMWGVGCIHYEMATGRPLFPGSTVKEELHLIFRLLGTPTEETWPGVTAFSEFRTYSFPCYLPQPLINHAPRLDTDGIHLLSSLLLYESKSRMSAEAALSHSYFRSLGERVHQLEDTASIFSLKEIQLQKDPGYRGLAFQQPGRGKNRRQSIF

O=C1Nc2cc(Br)ccc2/C1=C1/Nc2ccccc2/C1=N\O
kinase still bound, per cent of control (SIK1 (human)): 2.6% | kinase still bound, per cent of control (CDK18 (human)): 12% | kinase still bound, per cent of control (DAPK2 (human)): 2.6% | kinase still bound, per cent of control (CHEK1 (human)): 32% | kinase still bound, per cent of control (STK10 (human)): 75% | kinase still bound, per cent of control (TGFBR2 (human)): 58% | kinase still bound, per cent of control (MYLK2 (human)): 3% | kinase still bound, per cent of control (SRPK1 (human)): 5% | kinase still bound, per cent of control (EPHB3 (human)): 100% | kinase still bound, per cent of control (MINK1 (human)): 6.2% | kinase still bound, per cent of control (LIMK2 (human)): 92% | kinase still bound, per cent of control (CLK2 (human)): 8.2% | kinase still bound, per cent of control (CIT (human)): 29% | kinase still bound, per cent of control (MAP4K2 (human)): 8.5% | kinase still bound, per cent of control (DYRK1A (human)): 59% | kinase still bound, per cent of control (PIK3C2G (human)): 100% | kinase still bound, per cent of control [1]: 100% | kinase still bound, per cent of control [2]: 0.9% | kinase still bound, per cent of control (STK33 (human)): 11% | kinase still bound, per cent of control (EPHA7 (human)): 62% | kinase still bound, per cent of control (ACVRL1 (human)): 100% | kinase still bound, per cent of control (RIOK3 (human)): 8.4% | kinase still bound, per cent of control (MAP2K3 (human)): 33% | kinase still bound, per cent of control (MAP2K1 (human)): 37% | kinase still bound, per cent of control (SGK110 (human)): 100% | kinase still bound, per cent of control (MAPK15 (human)): 29% | kinase still bound, per cent of control (IRAK1 (human)): 39% | kinase still bound, per cent of control (CLK1 (human)): 34% | kinase still bound, per cent of control (MAPK8 (human)): 23% | kinase still bound, per cent of control [3]: 0.15% | kinase still bound, per cent of control [4]: 11% | kinase still bound, per cent of control (FLT3 (human)): 0.05% | kinase still bound, per cent of control (MAP4K4 (human)): 8% | kinase still bound, per cent of control (NUAK1 (human)): 12% | kinase still bound, per cent of control (PIK3CD (human)): 100% | kinase still bound, per cent of control (MAPK13 (human)): 100% | kinase still bound, per cent of control (MLTK (human)): 26% | kinase still bound, per cent of control (PLK1 (human)): 100% | kinase still bound, per cent of control (BLK (human)): 0.05% | kinase still bound, per cent of control [5]: 14% | kinase still bound, per cent of control (TEC (human)): 100%

Cc1cnc(-c2cnc(NCCNc3ccc(C#N)cn3)nc2-c2ccc(Cl)cc2Cl)[nH]1
kinase still bound, per cent of control (SIK1 (human)): 100% | kinase still bound, per cent of control (CDK18 (human)): 100% | kinase still bound, per cent of control (DAPK2 (human)): 94% | kinase still bound, per cent of control (CHEK1 (human)): 100% | kinase still bound, per cent of control (STK10 (human)): 100% | kinase still bound, per cent of control (TGFBR2 (human)): 100% | kinase still bound, per cent of control (MYLK2 (human)): 97% | kinase still bound, per cent of control (SRPK1 (human)): 100% | kinase still bound, per cent of control (EPHB3 (human)): 100% | kinase still bound, per cent of control (MINK1 (human)): 75% | kinase still bound, per cent of control (LIMK2 (human)): 100% | kinase still bound, per cent of control (CLK2 (human)): 40% | kinase still bound, per cent of control (CIT (human)): 100% | kinase still bound, per cent of control (MAP4K2 (human)): 82% | kinase still bound, per cent of control (DYRK1A (human)): 100% | kinase still bound, per cent of control (PIK3C2G (human)): 100% | kinase still bound, per cent of control [1]: 100% | kinase still bound, per cent of control [2]: 86% | kinase still bound, per cent of control (STK33 (human)): 100% | kinase still bound, per cent of control (EPHA7 (human)): 100% | kinase still bound, per cent of control (ACVRL1 (human)): 100% | kinase still bound, per cent of control (RIOK3 (human)): 100% | kinase still bound, per cent of control (MAP2K3 (human)): 87% | kinase still bound, per cent of control (MAP2K1 (human)): 100% | kinase still bound, per cent of control (SGK110 (human)): 100% | kinase still bound, per cent of control (MAPK15 (human)): 68% | kinase still bound, per cent of control (IRAK1 (human)): 100% | kinase still bound, per cent of control (CLK1 (human)): 49% | kinase still bound, per cent of control (MAPK8 (human)): 94% | kinase still bound, per cent of control [3]: 74% | kinase still bound, per cent of control [4]: 100% | kinase still bound, per cent of control (FLT3 (human)): 100% | kinase still bound, per cent of control (NUAK1 (human)): 100% | kinase still bound, per cent of control (PIK3CD (human)): 93% | kinase still bound, per cent of control (MAPK13 (human)): 100% | kinase still bound, per cent of control (PLK1 (human)): 5.4% | kinase still bound, per cent of control (BLK (human)): 100% | kinase still bound, per cent of control [5]: 100% | kinase still bound, per cent of control (TEC (human)): 100%

COc1ccc(CNC(=O)Nc2ncc([N+](=O)[O-])s2)cc1
kinase still bound, per cent of control (SIK1 (human)): 93% | kinase still bound, per cent of control (CDK18 (human)): 89% | kinase still bound, per cent of control (DAPK2 (human)): 93% | kinase still bound, per cent of control (CHEK1 (human)): 100% | kinase still bound, per cent of control (STK10 (human)): 100% | kinase still bound, per cent of control (TGFBR2 (human)): 70% | kinase still bound, per cent of control (MYLK2 (human)): 93% | kinase still bound, per cent of control (SRPK1 (human)): 100% | kinase still bound, per cent of control (EPHB3 (human)): 100% | kinase still bound, per cent of control (MINK1 (human)): 86% | kinase still bound, per cent of control (LIMK2 (human)): 100% | kinase still bound, per cent of control (CLK2 (human)): 73% | kinase still bound, per cent of control (CIT (human)): 89% | kinase still bound, per cent of control (MAP4K2 (human)): 100% | kinase still bound, per cent of control (DYRK1A (human)): 100% | kinase still bound, per cent of control (PIK3C2G (human)): 100% | kinase still bound, per cent of control [1]: 100% | kinase still bound, per cent of control [2]: 88% | kinase still bound, per cent of control (STK33 (human)): 75% | kinase still bound, per cent of control (EPHA7 (human)): 100% | kinase still bound, per cent of control (ACVRL1 (human)): 97% | kinase still bound, per cent of control (RIOK3 (human)): 86% | kinase still bound, per cent of control (MAP2K3 (human)): 100% | kinase still bound, per cent of control (MAP2K1 (human)): 100% | kinase still bound, per cent of control (SGK110 (human)): 83% | kinase still bound, per cent of control (MAPK15 (human)): 51% | kinase still bound, per cent of control (IRAK1 (human)): 100% | kinase still bound, per cent of control (CLK1 (human)): 62% | kinase still bound, per cent of control (MAPK8 (human)): 100% | kinase still bound, per cent of control [4]: 100% | kinase still bound, per cent of control (FLT3 (human)): 86% | kinase still bound, per cent of control (MAP4K4 (human)): 92% | kinase still bound, per cent of control (NUAK1 (human)): 100% | kinase still bound, per cent of control (PIK3CD (human)): 100% | kinase still bound, per cent of control (MAPK13 (human)): 94% | kinase still bound, per cent of control (MLTK (human)): 100% | kinase still bound, per cent of control (PLK1 (human)): 100% | kinase still bound, per cent of control [5]: 100% | kinase still bound, per cent of control (TEC (human)): 100%
